From patent US6500425B1, “Inhibiting plant pathogens with an antagonistic microorganism(s)” (The United States of America as represented by the …, priority 1988, dated 2002)

Tests used:
Assay type in all cases: in vivo
Penicillium expansum = Penicillium expansum lesion diameter on wounded apples (Example XIII); settings: CaCl2 2 gram/100 ml alone (yeast 0), seven days
From the text: Golden delicious apples were artificially wounded in accordance with Example XI.
The entries of Table X are the average of 5 replicates per treatment.

Botrytis cinerea [1] = assay: Botrytis cinerea infection of wounded apples, inorganic salts with or without NRRL Y-18314 (Example XI); settings: for Percent Infection, Salt Alone (No NRRL Y-18314): salt 2 grams/100 ml (FeSO4 5 millimolar), 10 days after inoculation, mean (standard error)
Method: Golden delicious apples were artificially wounded to a depth of 3 mm using a needle. Each of a first portion of the apples was treated with 50 microliter aliquots of an aqueous solution consisting of NRRL Y-18314 in sterile distilled water at a concentration of 10^7 CEU/ml with each of the salts listed in Table VIII at a concentration of 2 grams/100 ml (with the exception of FeSO4 which was utilized at a 5 millimolar concentration). A second portion of the apples was treated with a 50 microliter aqueous solution of the salts listed in Table VIII at a concentration of 2 grams/100 ml (with the exception of FeSO4 which was utilized in a concentration of 5 millimolar). Also a control was run using only sterile distilled water. Two hours after application of the above solutions, each of the apples was challenged with 20 microliters of a 10^5 spore/ml suspension of Botrytis cinerea. The average percent fruit infection of four trials (8 to 10 replicates per trial) was measured 10 days after inoculation with the Botrytis cinerea.
Values in parentheses are standard errors of the mean.

Botrytis cinerea [2] = assay: Botrytis cinerea infection of wounded apples, yeasts with or without CaCl2 (Example XII); settings: CaCl2 2 grams/100 ml, no yeast, seven days, mean (standard error)
From the text: Golden Delicious apples were wounded in accordance with the previous example. […] Two hours later the apples were challenged with 20 microliters of a suspension of 10^4 spores/milliliters of Botrytis cinerea. Seven days after inoculation percent infection was observed. […] Values in parentheses are standard errors of the mean.

Penicillium digitatum = Penicillium digitatum fruit rot of wounded grapefruit, CaCl2 and yeast concentrations (Example XIV)
Method: Grapefruit was wounded as in Example I. The wounded grapefruit were then treated with 50 microliter aliquots of the constituents identified in Tables XI and XII in sterile distilled water. Two hours later the […] were challenged with 20 microliters of a 10^4 spore/milliliter suspension of Penicillium digitatum. The grapefruit were incubated for 5 days at 24° C. before observations were taken.

## [Ca+2].[Cl-].[Cl-] [CaCl2, calcium chloride]
Penicillium expansum; 10^3 spores/ml
  Average Lesion Diameter: 40.4 mm
Penicillium expansum; 10^4 spores/ml
  Average Lesion Diameter: 45.2 mm
Penicillium expansum; 10^5 spores/ml
  Average Lesion Diameter: 47.0 mm
Botrytis cinerea [1]
  Percent Infection, Salt Alone (No NRRL Y-18314): 95.0 (±5.0) %
Botrytis cinerea [1]; used alone, 10 days
  infection reduction when used alone: approximately 5%
Botrytis cinerea [2]
  Average Percent Infection: 100.0 (±0.0) %
Penicillium digitatum; CaCl2 1% alone (yeast 0), series of Table XI
  Average Percent Fruit Rot: 39.0%
Penicillium digitatum; CaCl2 1% alone (yeast 0), series of Table XII
  Average Percent Fruit Rot: 63.0%
Penicillium digitatum; CaCl2 2% alone (yeast 0), series of Table XI
  Average Percent Fruit Rot: 22.8%
Penicillium digitatum; CaCl2 2% alone (yeast 0), series of Table XII
  Average Percent Fruit Rot: 33.0%

## O=S(=O)([O-])[O-].[Fe+2] [FeSO4]
Botrytis cinerea [1]
  Percent Infection, Salt Alone (No NRRL Y-18314): 87.5 (±12.5) %

## [Cl-].[K+] [KCl]
Botrytis cinerea [1]
  Percent Infection, Salt Alone (No NRRL Y-18314): 100.0 (±0.0) %

## [Cl-].[Cl-].[Mg+2] [MgCl2]
Botrytis cinerea [1]
  Percent Infection, Salt Alone (No NRRL Y-18314): 100.0 (±0.0) %

## [Cl][Mn][Cl] [MnCl2]
Botrytis cinerea [1]
  Percent Infection, Salt Alone (No NRRL Y-18314): 100.0 (±0.0) %

## [Cl-].[Na+] [NaCl]
Botrytis cinerea [1]
  Percent Infection, Salt Alone (No NRRL Y-18314): 100.0 (±0.0) %
